Experimental data taken from patent publication US9133155B2, “Antibacterial agents: high-potency myxopyronin derivatives” (Rutgers, The State University of New Jersey, priority 2010, dated 2015).
In brackets after ≈: the same amount, converted by molar mass. Read-outs that look alike come from different tables or passages of the source.

How the values were obtained:
[1] = tested on: Staphylococcus aureus; experiment: Antibacterial efficacy in mouse model of Staphylococcus aureus systemic infection (peritonitis model); assay type: in vivo, Swiss Webster mice; conditions: for effect on survival in a mouse model of Staphylococcus aureus infection (in words): summary of Tables 4a-4c
Protocol: (§1) Female Swiss Webster mice were experimentally infected by intraperitoneal administration of 5×10^7 colony forming units of Staphylococcus aureus in 10% hog gastric mucin. Test compounds (2-3 mg/ml in vehicle [9-19% dimethyacetamide/8-16% Cremophor EL in water, v/v]), positive controls (2 mg/ml vancomycin in vehicle), and negative controls (vehicle only and saline only), were administered by intravenous injection into a tail vein 1 h and 5 h post-infection (200 μl per injection). Survival was monitored for 12 h post-infection, or for 24, 48, and 72 h post-infection. At the end of the monitoring period, surviving animals were euthanized.

[2] = tested on: Acinetobacter baumannii ATCC 19606; experiment: Inhibition of bacterial growth in culture (MIC, spiral gradient endpoint); assay type: cell-based; conditions: for MIC: Acinetobacter baumannii, ATCC19606, Mueller-Hinton II agar, 16 h at 37° C.
Description: (§2) Minimum inhibitory concentrations (MICs) for Staphylococcus aureus ATCC 12600, Enterococcus faecalis ATCC 19433, Acinetobacter baumannii ATCC 19606, and Escherichia coli D21f2tolC were quantified using spiral gradient endpoint assays, essentially as described [Wallace, A. and Corkill, J. (1989) Application of the spiral plating method to study antimicrobial action. J. Microbiol. Meths. […] Int. J. Exp. Clin. Chemother. 3, 31-38; Schalkowsky S. (1994) Measures of susceptibility from a spiral gradient of drug concentrations. Adv. Exp. Med. Biol. 349, 107-120]. Assays employed exponential-gradient plates containing 150 mm×4 mm Mueller-Hinton II cation-adjusted agar and 0.4-100 μg/ml of test compound. Plates were prepared using an Autoplate 4000 spiral plater (Spiral Biotech, Inc.). Saturated overnight cultures were swabbed radially onto plates, and plates were incubated for 16 h at 37° C. For each culture, the streak length was measured using a clear plastic template (Spiral Biotech, Inc.), the test-compound concentration at the streak endpoint was calculated using the program SGE (Spiral Biotech, Inc.), and the MIC was defined as the calculated test-compound concentration at the streak endpoint.

[3] = tested on: Enterococcus faecalis ATCC 19433; experiment: as above; assay type: cell-based; conditions: for MIC: Enterococcus faecalis, ATCC19433, Mueller-Hinton II agar, 16 h at 37° C., read-out: MIC E. faecalis 19433
Description: as §2

[4] = tested on: Escherichia coli D21f2tolC; experiment: as above; assay type: cell-based; conditions: 16 h, read-out: MIC E. coli D21f2tolC
Description: as §2

[5] = tested on: Staphylococcus aureus ATCC 12600; experiment: as above; assay type: cell-based; conditions: for MIC: Staphylococcus aureus, ATCC12600, Mueller-Hinton II agar, 16 h at 37° C., read-out: MIC S. aureus 12600
Description: as §2

[6] = target: M. tuberculosis RNA polymerase (Mycobacterium tuberculosis, UniProt P9WGY7+P9WGY9); experiment: Inhibition of Mycobacterium tuberculosis RNA polymerase (fluorescence-detected); assay type: biochemical
Protocol: (§3) Fluorescence-detected RNA polymerase assays with E. coli RNA polymerase were performed by a modification of the procedure of Kuhlman et al., 2004 [Kuhlman, P., Duff, H. & Galant, A. (2004) A fluorescence-based assay for multisubunit DNA-dependent RNA polymerases. Anal. Biochem. 324, 183-190]. Reaction mixtures contained (20 μl): 0-100 nM test compound, 75 nM E. coli RNA polymerase σ^70 holoenzyme, 20 nM 384 bp DNA fragment containing the bacteriophage T4 N25 promoter, 100 μM ATP, 100 μM GTP, 100 μM UTP, 100 μM CTP, 50 mM Tris-HCl, pH 8.0, 100 mM KCl, 10 mM MgCl2, 1 mM DTT, 10 μg/ml bovine serum albumin, and 5.5% glycerol. Reaction components other than DNA and NTPs were pre-incubated for 10 min at 37° C. Reactions were carried out by addition of DNA and incubation for 5 min at 37° C., followed by addition of NTPs and incubation for 60 min at 37° C. DNA was removed by addition of 1 μl 5 mM CaCl2 and 2 U DNaseI (Ambion, Inc.), followed by incubation for 90 min at 37° C. RNA was quantified by addition of 100 μl RiboGreen RNA Quantitation Reagent (Invitrogen, Inc.; 1:500 dilution in Tris-HCl, pH 8.0, 1 mM EDTA), followed by incubation for 10 min at 25° C., followed by measurement of fluorescence intensity [excitation wavelength=485 nm and emission wavelength=535 nm; QuantaMaster QM1 spectrofluorometer (PTI, Inc.)].
Fluorescence-detected RNA polymerase assays with M. tuberculosis RNA polymerase were performed as in Example 17.1, using reaction mixtures containing (20 μl): 0-100 nM test compound, 75 nM M. tuberculosis RNA polymerase core enzyme, 300 nM M. tuberculosis σ^A, 20 nM 384 bp DNA fragment containing the bacteriophage […] N25 promoter, 100 μM ATP, 100 μM GTP, 100 μM UTP, 100 μM CTP, 40 mM Tris-HCl, pH 8.0, 80 mM NaCl, 5 mM MgCl2, 2.5 mM DTT, and 12.7% glycerol.

[7] = target: E. coli RNA polymerase σ^70 holoenzyme (Escherichia coli, UniProt P0A8T7+P0A8V2); experiment: Inhibition of Escherichia coli RNA polymerase (fluorescence-detected); assay type: biochemical; conditions: read-out: IC50 E. coli RNAP
Chain of E. coli RNA polymerase σ^70 holoenzyme (P0A8V2 whole entry): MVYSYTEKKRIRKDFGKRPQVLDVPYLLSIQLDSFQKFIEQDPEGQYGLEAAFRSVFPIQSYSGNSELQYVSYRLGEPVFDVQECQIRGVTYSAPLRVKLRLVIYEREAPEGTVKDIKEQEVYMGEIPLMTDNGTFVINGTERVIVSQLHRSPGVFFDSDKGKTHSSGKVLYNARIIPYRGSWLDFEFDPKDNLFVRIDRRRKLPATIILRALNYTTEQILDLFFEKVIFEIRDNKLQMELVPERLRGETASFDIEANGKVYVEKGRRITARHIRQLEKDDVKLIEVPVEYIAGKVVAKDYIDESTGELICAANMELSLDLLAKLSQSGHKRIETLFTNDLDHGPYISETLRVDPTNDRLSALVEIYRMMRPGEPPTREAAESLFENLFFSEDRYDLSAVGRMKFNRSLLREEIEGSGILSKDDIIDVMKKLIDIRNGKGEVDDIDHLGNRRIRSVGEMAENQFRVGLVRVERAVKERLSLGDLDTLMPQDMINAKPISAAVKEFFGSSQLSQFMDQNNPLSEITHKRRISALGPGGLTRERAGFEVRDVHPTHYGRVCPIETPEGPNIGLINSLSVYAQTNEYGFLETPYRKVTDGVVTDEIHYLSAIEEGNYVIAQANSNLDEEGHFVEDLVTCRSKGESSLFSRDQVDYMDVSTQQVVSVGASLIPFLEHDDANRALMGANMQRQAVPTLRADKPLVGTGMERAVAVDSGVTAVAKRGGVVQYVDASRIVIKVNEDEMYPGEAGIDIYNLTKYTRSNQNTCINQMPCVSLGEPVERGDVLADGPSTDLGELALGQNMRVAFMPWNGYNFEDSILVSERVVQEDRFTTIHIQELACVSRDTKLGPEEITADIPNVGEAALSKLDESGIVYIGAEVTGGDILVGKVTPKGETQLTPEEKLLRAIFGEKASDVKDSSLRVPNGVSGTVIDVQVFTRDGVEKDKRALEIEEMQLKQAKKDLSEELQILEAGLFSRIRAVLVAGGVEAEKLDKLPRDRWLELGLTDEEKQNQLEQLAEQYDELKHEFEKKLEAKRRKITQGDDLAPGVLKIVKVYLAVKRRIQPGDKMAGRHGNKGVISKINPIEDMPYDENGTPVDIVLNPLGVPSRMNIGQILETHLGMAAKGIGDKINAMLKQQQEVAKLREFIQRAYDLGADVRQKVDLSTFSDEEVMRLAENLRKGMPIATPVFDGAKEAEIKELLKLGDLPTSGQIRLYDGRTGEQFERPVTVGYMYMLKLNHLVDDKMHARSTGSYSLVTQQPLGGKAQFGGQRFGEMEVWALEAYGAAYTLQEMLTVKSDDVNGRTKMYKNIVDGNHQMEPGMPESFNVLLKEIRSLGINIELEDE
Chain of E. coli RNA polymerase σ^70 holoenzyme (P0A8T7 whole entry): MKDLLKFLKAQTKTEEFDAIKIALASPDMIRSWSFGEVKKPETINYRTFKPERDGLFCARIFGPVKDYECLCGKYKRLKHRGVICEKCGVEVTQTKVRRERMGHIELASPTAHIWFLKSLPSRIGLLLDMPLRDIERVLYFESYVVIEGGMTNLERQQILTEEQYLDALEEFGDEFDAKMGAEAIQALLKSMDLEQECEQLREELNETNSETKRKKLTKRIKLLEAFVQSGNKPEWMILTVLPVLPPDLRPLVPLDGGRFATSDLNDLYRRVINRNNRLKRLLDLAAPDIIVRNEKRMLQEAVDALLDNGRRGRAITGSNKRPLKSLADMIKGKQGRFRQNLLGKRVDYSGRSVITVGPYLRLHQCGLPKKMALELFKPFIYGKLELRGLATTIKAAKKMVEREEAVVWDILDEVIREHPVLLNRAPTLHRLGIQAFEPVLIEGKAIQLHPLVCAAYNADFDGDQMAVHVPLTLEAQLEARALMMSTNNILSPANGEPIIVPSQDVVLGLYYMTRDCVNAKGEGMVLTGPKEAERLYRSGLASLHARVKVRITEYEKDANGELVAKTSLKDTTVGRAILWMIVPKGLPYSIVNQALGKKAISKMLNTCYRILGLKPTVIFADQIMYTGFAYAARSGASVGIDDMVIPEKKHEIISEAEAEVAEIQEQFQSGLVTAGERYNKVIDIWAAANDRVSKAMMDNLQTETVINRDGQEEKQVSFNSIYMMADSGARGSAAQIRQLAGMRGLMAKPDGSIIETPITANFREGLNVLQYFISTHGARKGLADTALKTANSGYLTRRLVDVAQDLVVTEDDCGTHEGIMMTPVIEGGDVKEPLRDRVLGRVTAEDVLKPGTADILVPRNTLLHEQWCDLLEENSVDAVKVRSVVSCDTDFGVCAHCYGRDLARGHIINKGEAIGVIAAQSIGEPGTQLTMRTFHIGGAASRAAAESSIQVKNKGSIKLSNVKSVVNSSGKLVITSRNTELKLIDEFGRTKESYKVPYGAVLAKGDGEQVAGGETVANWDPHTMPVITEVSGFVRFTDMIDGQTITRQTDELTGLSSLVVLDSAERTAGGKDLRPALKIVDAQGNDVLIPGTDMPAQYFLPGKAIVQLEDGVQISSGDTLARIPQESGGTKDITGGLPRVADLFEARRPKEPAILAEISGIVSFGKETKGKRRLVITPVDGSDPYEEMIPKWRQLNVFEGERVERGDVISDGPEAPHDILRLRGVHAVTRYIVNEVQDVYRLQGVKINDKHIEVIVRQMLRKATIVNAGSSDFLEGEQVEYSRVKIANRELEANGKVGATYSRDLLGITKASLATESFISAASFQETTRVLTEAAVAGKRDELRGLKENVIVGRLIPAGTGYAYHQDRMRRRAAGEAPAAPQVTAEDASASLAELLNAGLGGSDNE
Chain of E. coli RNA polymerase σ^70 holoenzyme (P0A7Z4 whole entry partner): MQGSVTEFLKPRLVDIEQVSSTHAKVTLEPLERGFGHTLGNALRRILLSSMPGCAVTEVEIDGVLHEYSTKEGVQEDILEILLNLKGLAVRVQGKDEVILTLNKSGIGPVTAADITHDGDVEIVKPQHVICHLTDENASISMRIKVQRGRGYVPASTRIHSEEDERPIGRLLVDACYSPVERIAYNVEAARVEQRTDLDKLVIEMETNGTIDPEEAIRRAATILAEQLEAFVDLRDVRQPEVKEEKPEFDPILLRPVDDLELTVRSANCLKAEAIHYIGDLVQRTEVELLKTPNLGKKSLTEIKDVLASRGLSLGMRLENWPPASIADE
Chain of E. coli RNA polymerase σ^70 holoenzyme (P0A800 whole entry partner): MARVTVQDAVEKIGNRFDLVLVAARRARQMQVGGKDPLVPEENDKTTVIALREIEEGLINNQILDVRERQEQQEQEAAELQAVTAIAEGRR
Chain of E. coli RNA polymerase σ^70 holoenzyme (P00579 whole entry partner): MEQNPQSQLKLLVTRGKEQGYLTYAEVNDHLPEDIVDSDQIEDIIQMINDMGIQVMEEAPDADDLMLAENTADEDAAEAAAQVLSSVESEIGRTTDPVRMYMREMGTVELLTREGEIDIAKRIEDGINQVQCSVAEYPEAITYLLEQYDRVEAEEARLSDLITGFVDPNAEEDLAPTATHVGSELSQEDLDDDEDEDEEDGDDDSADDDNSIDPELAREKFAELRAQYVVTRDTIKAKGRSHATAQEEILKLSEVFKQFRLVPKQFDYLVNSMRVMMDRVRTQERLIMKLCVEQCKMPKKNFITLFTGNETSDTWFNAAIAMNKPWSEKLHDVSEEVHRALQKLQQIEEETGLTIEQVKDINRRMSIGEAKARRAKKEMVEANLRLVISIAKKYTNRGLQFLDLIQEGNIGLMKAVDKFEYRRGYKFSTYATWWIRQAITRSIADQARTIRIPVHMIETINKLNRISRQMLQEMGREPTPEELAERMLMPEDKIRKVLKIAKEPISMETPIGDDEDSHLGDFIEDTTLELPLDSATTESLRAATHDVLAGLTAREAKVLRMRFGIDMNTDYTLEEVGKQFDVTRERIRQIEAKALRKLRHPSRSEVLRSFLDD
Protocol: as §3

[8] = target: S. aureus RNA polymerase (Staphylococcus aureus, UniProt P47768+Q2G0N5); experiment: Inhibition of Staphylococcus aureus RNA polymerase (fluorescence-detected); assay type: biochemical
[9] = Tolerability upon intravenous injection (peritonitis model study); assay type: in vivo, Swiss Webster mice; conditions: daily total doses of at least 30 mg/kg; vehicles containing 9% to 19% dimethylacetamide and 8% to 16% Cremophor EL
Protocol: as §1

[10] = Table 4c, total dose 50 mg/kg iv, vehicle 9% dimethylacetamide/8% Cremophor EL/83% water

Row | SMILES | 12-hour survival ([1]; Table 4b, total dose 50 mg/kg iv, vehicle 19% dimethylacetamide/16% Cremophor EL/73% water) [%] | 24-hour survival [1, 10] [%] | 48-hour survival [1, 10] [%] | 72-hour survival [1, 10] [%] | effect on survival in a mouse model of Staphylococcus aureus infection (in words) [1] | MIC [2] [mg/L] | inhibition of Acinetobacter baumannii (in words) ([2]; summary of Table 3) | MIC [3] [mg/L] | MIC [4] [mg/L] | MIC [5] [mg/L] | IC50 [6] [µM] | IC50 [7] [µM] | IC50 [8] [µM] | acute toxicity upon intravenous injection [9] | 12-hour survival ([1]; Table 4a, total dose 30 mg/kg iv, 1 h and 5 h post-infection, vehicle 19% dimethylacetamide/8% Cremophor EL/73% water) [%] | inhibition of Enterococcus faecalis compared with Myx B and 7-desmethyl-Myx B ([3]; summary of Table 3) | inhibition of Staphylococcus aureus compared with Myx B and 7-desmethyl-Myx B ([5]; summary of Table 3) | IC50 ([6]; read-out: IC50 M. tuberculosis RNAP) [µM] | IC50 ([8]; read-out: IC50 S. aureus RNAP) [µM]
1 | CCCC/C(C)=C/C=C(\C)C(=O)c1c(O)cc(C(C)CC/C=C/NC(=O)OC)oc1=O (centres unmarked) [Myx B, Methyl ((E)-5-(3-((2E,4E)-2,5-dimethylnona-2,4-dienoyl)-4-hydroxy-2-oxo-2H-pyran-6-yl)hex-1-en-1-yl)carbamate, reference compound] | 50 | 75 | 50 | 50 | increase survival | > 40 | not detectably inhibited | 13 (≈ 30.1 µM) | 0.098 (≈ 0.227 µM) | 0.78 (≈ 1.81 µM) | 0.13 | 0.013 | 0.066 | tolerated without acute toxicity | – | – | – | – | –
2 | CCCCC/C(C)=C/C=C(\C)C(=O)c1c(O)cc(CCC/C=C/NC(=O)OC)oc1=O [compound 5, Methyl ((E)-5-(3-((2E,4E)-2,5-dimethyldeca-2,4-dienoyl)-4-hydroxy-2-oxo-2H-pyran-6-yl)pent-1-en-1-yl)carbamate] | – | – | – | – | increase survival | 19 (≈ 44 µM) | – | 12 (≈ 27.8 µM) | 0.076 (≈ 0.176 µM) | 0.44 (≈ 1.02 µM) | – | 0.0039 | – | tolerated without acute toxicity | 100 | more potently than Myx B and 7-desmethyl-Myx B | more potently than Myx B and 7-desmethyl-Myx B | 0.032 | 0.015
